Data reported in ChEMBL document CHEMBL1128116, “Synthesis and resolution of -(aminomethyl)-4-chlorobenzeneethanesulfinic acid a potent gabaB receptor ligand” (Bioorg Med Chem Lett, 1995).

Tests used:
[1] = Inhibitory activity against Gamma-aminobutyric acid A (GABA-A) receptor; parameters: species or system Rattus norvegicus
[2] = species: Cavia porcellus; experiment: In vitro inhibition against electrical field stimulated neuronal cholinergic contractions of guinea pig trachea; assay type: functional

Compound NCC(CS(=O)O)c1ccc(Cl)cc1 (racemic) has an IC50 [1] greater than 100 µM and an IC30 ([2]; Cavia porcellus, Trachea, read-out: IC30) of 22 µM.

For NCC(CS(=O)O)c1ccc(Cl)cc1 (single isomer, unassigned; (-)), the IC30 [2] was 13.9 µM.
